This passage reports IC50 results from US9938276B2, “6,5-bicyclic octahydropyrrolopyridine orexin receptor antagonists” (Merck Sharp & Dohme Corp., priority 2014, dated 2018).

One assay addresses human orexin-2 receptor (Homo sapiens (Human), UniProt O43614). In words: hOX2R FLIPR Ca2+ flux assay. The class given is cell-based. The note with it: CHO cells expressing the receptor; agonist 70 pM Ala-6,12 human orexin-A. How it is done:
In a typical experiment the OX1 and OX2 receptor antagonistic activity of the compounds of the present invention was determined in accordance with the following experimental method. For intracellular calcium measurements, Chinese hamster ovary (CHO) cells expressing the rat orexin-1 receptor or the human orexin-2 receptor, are grown in Iscove's modified DMEM containing 2 mM L-glutamine, […], 1% hypoxanthine-thymidine supplement, 100 U/ml penicillin, 100 μg/ml streptomycin and 10% heat-inactivated fetal calf serum (FCS). The cells are seeded at 20,000 cells/well into Becton-Dickinson black 384-well clear bottom sterile plates coated with poly-D-lysine. All reagents were from GIBCO-Invitrogen Corp. The seeded plates are incubated overnight at 37° C. and 5% CO2. Ala-6,12 human orexin-A as the agonist is prepared as a 1 mM stock solution in 1% bovine serum albumin (BSA) and diluted in assay buffer (HBSS containing 20 mM HEPES, 0.1% BSA and 2.5 mM probenecid, pH7.4) for use in the assay at a final concentration of 70 pM. Test compounds are prepared as 10 mM stock solution in DMSO, then diluted in 384-well plates, first in DMSO, then assay buffer. On the day of the assay, cells are washed 3 times with 100 μl assay buffer and then incubated for 60 min (37° C., 5% CO2) in 60 μl assay buffer containing 1 μM Fluo-4AM ester, 0.02% pluronic acid, and 1% BSA. The dye loading solution is then aspirated and cells are washed 3 times with 100 μl assay buffer. 30 μl of that same buffer is left in each well. Within the Fluorescent Imaging Plate Reader (FLIPR, Molecular Devices), test compounds are added to the plate in a volume of 25 μl, incubated for 5 min and finally 25 μl of agonist is added. Fluorescence is measured for each well at 1 second intervals for 5 minutes and the height of each fluorescence peak is compared to the height of the fluorescence peak induced by 70 pM Ala-6,12 orexin-A with buffer in place of antagonist. […] Alternatively, compound potency can be assessed by a radioligand binding assay (described in Bergman et. al. Bioorg. Med. Chem. Lett. 2008, 18, 1425-1430) in which the inhibition constant (Ki) is determined in membranes prepared from CHO cells expressing either the OX1 or OX2 receptor. The intrinsic orexin receptor antagonist activity of a compound which may be used in the present invention may be determined by these assays.
On the technique in general: A change in cytosolic calcium serves as a functional read-out for many receptors and channels.

In a further assay the target is hOX1R (Homo sapiens, UniProt O43613). In words: hOX1R FLIPR Ca2+ flux assay. Type of assay: cell-based. The note with it: CHO cells expressing the receptor; agonist 70 pM Ala-6,12 human orexin-A.

Bounds are passed on as bounds.

Sequence of human orexin-2 receptor (O43614 whole entry): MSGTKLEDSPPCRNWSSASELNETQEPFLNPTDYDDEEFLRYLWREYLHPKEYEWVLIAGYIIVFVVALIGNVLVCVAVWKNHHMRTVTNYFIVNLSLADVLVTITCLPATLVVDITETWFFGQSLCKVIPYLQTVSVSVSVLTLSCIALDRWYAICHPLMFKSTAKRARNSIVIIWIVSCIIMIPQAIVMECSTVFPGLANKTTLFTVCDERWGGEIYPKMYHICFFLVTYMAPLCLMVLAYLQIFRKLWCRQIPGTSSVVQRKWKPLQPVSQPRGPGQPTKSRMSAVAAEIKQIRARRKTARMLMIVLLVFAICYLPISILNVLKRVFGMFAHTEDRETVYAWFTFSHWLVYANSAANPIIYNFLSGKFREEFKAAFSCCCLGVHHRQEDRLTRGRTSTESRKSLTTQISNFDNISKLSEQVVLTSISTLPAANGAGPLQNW

A word on the IC50: it is the midpoint of a concentration-inhibition curve. Higher therefore signals a need for much substance. `Cc1ccnc(N2CC[C@@H]3CCN(C(=O)c4ccccc4-n4nccn4)C[C@@H]32)c1` [Example B1, (2-(2H-1,2,3-triazol-2-yl)phenyl)((3aR,7aR)-1-(4-methylpyridin-2-yl)hexahydro-1H-pyrrolo[2,3-c]pyridin-6(2H)-yl)methanone]: the half-inhibitory concentration (IC50) at human orexin-2 receptor was 0.902 µM; on hOX1R it was at least 10 µM.

Consider `COc1ccnc(N2CC[C@@H]3CCN(C(=O)c4ccccc4-n4nccn4)C[C@@H]32)c1` [Example B3, (3aR, 7aR)-(2-(2H-1,2,3-triazol-2-yl)phenyl)(1-(4-methoxypyridin-2-yl)hexahydro-1H-pyrrolo[2,3-c]pyridin-6(2H)-yl)methanone], for which the 50% inhibitory concentration (IC50) at human orexin-2 receptor was 1.01 µM; at hOX1R, at least 10 µM.

As for `CCOc1ccnc(N2CC[C@@H]3CCN(C(=O)c4ccccc4-n4nccn4)C[C@@H]32)c1` [Example B4, (3aR, 7aR)-(2-(2H-1,2,3-triazol-2-yl)phenyl)(1-(4-ethoxypyridin-2-yl)hexahydro-1H-pyrrolo[2,3-c]pyridin-6(2H)-yl)methanone], the results for the half-maximal inhibitory concentration (IC50) at human orexin-2 receptor and on hOX1R were 0.766 µM and at least 10 µM, respectively.

In the case of `N#Cc1cc(N2CC[C@@H]3CCN(C(=O)c4ccccc4-n4nccn4)C[C@@H]32)ncc1F` [Example B5, 5-fluoro-2-[(3aR, 7aR)-6-{[2-(2H-1,2,3-triazol-2-yl)phenyl]carbonyl}octahydro-1H-pyrrolo[2,3-c]pyridin-1-yl]pyridine-4-carbonitrile], the 50% inhibitory concentration (IC50) on human orexin-2 receptor was 4.72 µM; at hOX1R it was at least 10 µM.

On to `N#Cc1cccc(N2CC[C@@H]3CCN(C(=O)c4ccccc4-n4nccn4)C[C@@H]32)c1` [Example B6, 3-((3aR, 7aR)-6-(2-(2H-1,2,3-triazol-2-yl)benzoyl)octahydro-1H-pyrrolo[2,3-c]pyridin-1-yl)benzonitrile], for which the IC50 on human orexin-2 receptor is 1.73 µM; at hOX1R, at least 10 µM.

Take `O=C(c1ccccc1-n1nccn1)N1CC[C@H]2CCN(c3ncnc4[nH]ccc34)[C@H]2C1` [Example B7, (3aR, 7aR)-(2-(2H-1,2,3-triazol-2-yl)phenyl)(1-(7H-pyrrolo[2,3-d]pyrimidin-4-yl)hexahydro-1H-pyrrolo[2,3-c]pyridin-6(2H)-yl)methanone]: the half-inhibitory concentration (IC50) at human orexin-2 receptor and on hOX1R was 10 µM throughout.

For `O=C(c1ccccc1-n1nccn1)N1CC[C@H]2CCN(c3nccc4ncccc34)[C@H]2C1` [Example B8, 5-[(3aR, 7aR)-6-{[2-(2H-1,2,3-triazol-2-yl)phenyl]carbonyl}octahydro-1H-pyrrolo[2,3-c]pyridin-1-yl]-1,6-naphthyridine], the results for the 50% inhibitory concentration (IC50) at human orexin-2 receptor and on hOX1R were 2.52 µM and 10 µM, respectively.

As to `O=C(c1ccccc1-n1nccn1)N1CC[C@H]2CCN(c3nccc4ccccc34)[C@H]2C1` [Example B9, (2-(2H-1,2,3-triazol-2-yl)phenyl)((3aR, 7aR)-1-(isoquinolin-1-yl)hexahydro-1H-pyrrolo[2,3-c]pyridin-6(2H)-yl)methanone], the IC50 on human orexin-2 receptor was 0.0408 µM; at hOX1R, 1.66 µM.

Turning to `O=C(c1ccccc1-n1nccn1)N1CC[C@H]2CCN(c3ccnc4ccccc34)[C@H]2C1` [Example B10, (2-(2H-1,2,3-triazol-2-yl)phenyl)((3aR, 7aR)-1-(quinolin-4-yl)hexahydro-1H-pyrrolo[2,3-c]pyridin-6(2H)-yl)methanone], the values for the 50% inhibitory concentration (IC50) on human orexin-2 receptor and on hOX1R were 3.43 µM and 10 µM, respectively.

With `COC(=O)c1csc(N2CC[C@@H]3CCN(C(=O)c4ccccc4-n4nccn4)C[C@@H]32)n1` [Example B11, methyl 2-((3aS, 7aR)-6-(2-(2H-1,2,3-triazol-2-yl)benzoyl)octahydro-1H-pyrrolo[2,3-c]pyridin-1-yl)thiazole-4-carboxylate], the half-maximal inhibitory concentration (IC50) on human orexin-2 receptor and on hOX1R was 10 µM throughout.

For `O=C(c1ccccc1-n1nccn1)N1CC[C@H]2CCN(c3nccn4nccc34)[C@H]2C1` [Example B13, (3aR, 7aR)-6-(2-(2H-1,2,3-triazol-2-yl)benzoyl)-1-(pyrazolo[1,5-a]pyrazin-4-yl)ocathydro-1H-pyrrolo[2,3-c]pyridin-1-ium], the concentration for half-maximal inhibition (IC50) was found to be 2.02 µM at human orexin-2 receptor and 10 µM on hOX1R.

On to `O=C(c1ccccc1-n1nccn1)N1CC[C@H]2CCN(c3nccn4ccnc34)[C@H]2C1` [Example B14, (2-(2H-1,2,3-triazol-2-yl)phenyl)((3aR, 7aR)-1-(imidazo[1,2-a]pyrazin-8-yl)hexahydro-1H-pyrrolo[2,3-c]pyridin-6(2H)-yl)methanone], for which the figures for the IC50 on human orexin-2 receptor and on hOX1R were 1.07 µM and at least 10 µM, respectively.

Turning to `O=C(c1ccccc1-n1nccn1)N1CC[C@H]2CCN(c3ncnc4sccc34)[C@H]2C1` [Example B15, (2-(2H-1,2,3-triazol-2-yl)phenyl)((3aR, 7aR)-1-(thieno[2,3-d]pyrimidin-4-yl)hexahydro-1H-pyrrolo[2,3-c]pyridin-6(2H)-yl)methanone], the IC50 on human orexin-2 receptor and on hOX1R was at least 10 µM in each case.

As for `O=C(c1ccccc1-n1nccn1)N1CC[C@H]2CCN(c3nccc4cccnc34)[C@H]2C1` [Example B16, ((3aR, 7aR)-1-(1,7-naphthyridin-8-yl)hexahydro-1H-pyrrolo[2,3-c]pyridin-6(2H)-yl)(2-(2H-1,2,3-triazol-2-yl)phenyl)methanone], the values for the IC50 on human orexin-2 receptor and on hOX1R were 0.75 µM and at least 10 µM, respectively.

As for `O=C(c1ccccc1-n1nccn1)N1CC[C@H]2CCN(c3ccc4ccccc4n3)[C@H]2C1` [Example B18, 2-[(3aR, 7aR)-6-{[2-(2H-1,2,3-triazol-2-yl)phenyl]carbonyl}octahydro-1H-pyrrolo[2,3-c]pyridin-1-yl]quinoline], the 50% inhibitory concentration (IC50) was found to be 1.53 µM at human orexin-2 receptor and 1.04 µM on hOX1R.

`O=C1OCc2c1ccnc2N1CC[C@@H]2CCN(C(=O)c3ccccc3-n3nccn3)C[C@@H]21` [Example B19, 4-[(3aR, 7aR)-6-{[2-(2H-1,2,3-triazol-2-yl)phenyl]carbonyl}octahydro-1H-pyrrolo[2,3-c]pyridin-1-yl]furo[3,4-c]pyridin-1(3H)-one]: the IC50 worked out at 1.01 µM at human orexin-2 receptor and 10 µM on hOX1R.

Take `Cc1cncc(N2CC[C@@H]3CCN(C(=O)c4ccccc4-n4nccn4)C[C@@H]32)n1` [Example B20, (3aR, 7aR)-1-(6-methylpyrazin-2-yl)-6-{[2-(2H-1,2,3-triazol-2-yl)phenyl]carbonyl}octahydro-1H-pyrrolo[2,3-c]pyridine]: the values for the IC50 on human orexin-2 receptor and on hOX1R were 2.08 µM and at least 10 µM, respectively.

With `Cc1ncc(N2CC[C@@H]3CCN(C(=O)c4ccccc4-n4nccn4)C[C@@H]32)nc1C` [Example B21, (3aR, 7aR)-1-(5,6-dimethylpyrazin-2-yl)-6-{[2-(2H-1,2,3-triazol-2-yl)phenyl]carbonyl}octahydro-1H-pyrrolo[2,3-c]pyridine], the 50% inhibitory concentration (IC50) at human orexin-2 receptor was 0.948 µM; at hOX1R, 10 µM.

As for `Cc1cnc(C)c(N2CC[C@@H]3CCN(C(=O)c4ccccc4-n4nccn4)C[C@@H]32)n1` [Example B22, (3aR, 7aR)-1-(3,6-dimethylpyrazin-2-yl)-6-{[2-(2H-1,2,3-triazol-2-yl)phenyl]carbonyl}octahydro-1H-pyrrolo[2,3-c]pyridine], the IC50 is 5.91 µM at human orexin-2 receptor and at least 10 µM at hOX1R.

`O=C(c1ccccc1-n1nccn1)N1CC[C@H]2CCN(c3cncc4ccccc34)[C@H]2C1` [Example B23, 4-[(3aR, 7aR)-6-{[2-(2H-1,2,3-triazol-2-yl)phenyl]carbonyl}octahydro-1H-pyrrolo[2,3-c]pyridin-1-yl]isoquinoline]: the IC50 at human orexin-2 receptor worked out at 7.07 µM; at hOX1R, 10 µM.

For the molecule `CC(C)(O)c1csc(N2CC[C@H]3CCN(C(=O)c4ccccc4-n4nccn4)C[C@@H]32)n1` [Example C1], the IC50 at human orexin-2 receptor was 0.202 µM; on hOX1R, 10 µM.

`CC(C)(O)c1coc(N2CC[C@@H]3CCN(C(=O)c4ccccc4-n4nccn4)C[C@@H]32)n1` [Example C2]: the IC50 turned out to be 0.342 µM on human orexin-2 receptor and 10 µM on hOX1R.

In the case of `CC(O)(c1cncc(N2CC[C@@H]3CCN(C(=O)c4ccccc4-n4nccn4)C[C@@H]32)n1)C(F)(F)F` (stereo partly drawn) [Example C3, 1,1,1-trifluoro-2-{6-[(3aR, 7aR)-6-{[2-(2H-1,2,3-triazol-2-yl)phenyl]carbonyl}octahydro-1H-pyrrolo[2,3-c]pyridin-1-yl]pyrazin-2-yl}propan-2-ol], the IC50 on human orexin-2 receptor was 3.34 µM; on hOX1R, at least 10 µM.

`CC(C)(O)c1cccc(N2CC[C@@H]3CCN(C(=O)c4ccccc4-n4nccn4)C[C@@H]32)c1` [Example C4, 2-{3-[(3aR, 7aR)-6-{[2-(2H-1,2,3-triazol-2-yl)phenyl]carbonyl}octahydro-1H-pyrrolo[2,3-c]pyridin-1-yl]phenyl}propan-2-ol]: the IC50 at human orexin-2 receptor came to 0.0486 µM; on hOX1R, 10 µM.
